The source of these data is patent US4082760A, “Derivatives of 2H,3H-benzimidazo(1,2-b)oxazole” (Italchemi S.p.A. Istituto Chimico Farmaceutico, priority 1975, dated 1978).

What all share (test): MIC of antibiotics alone or mixed with equimolar compound, beta-lactamase-producing germs
Common to all, as to type: cell-based

Experiment [1] concerns Protetts mirabilis R2. The settings on record: combinations: equimolar quantities. The source says:
(§1) The capacity of the products of general formula (I) to compete with the action of the beta-lactamase may be shown by comparing the minimum inhibiting concentrations (MIC) of some penicillins and cephalosporins when mixed with equimolar quantities of the products of general formula I and when not so mixed, in relation to pathogenic germs which produce beta-lactamase.

For experiment [2], the system named is Escherichia Coli R3. The settings on record: combinations: equimolar quantities.
Source text: as §1

Experiment [3] deals with Escherichia Coli R8. The settings on record: combinations: equimolar quantities.
Source text: as §1

In experiment [4] the test system is Protetts mirabilis R7. To be noted: combinations: equimolar quantities.
Source text: as §1

Experiment [5] deals with Protetts Rettgeri R5. The settings on record: combinations: equimolar quantities.
Source text: as §1

Experiment [6] concerns Protetts mirabilis. To be noted: Protetts mirabilis (strain number not given); combinations: equimolar quantities.
Source text: as §1

The test system of experiment [7] is Escherichia Coli R9. To be noted: combinations: equimolar quantities.
Source text: as §1

The subject of experiment [8] is Pseudomonas Aeruginosa R4. The settings on record: combinations: equimolar quantities.
Source text: as §1

In experiment [9] the test system is Pseudomonas Aeruginosa R1. To be noted: combinations: equimolar quantities.
Source text: as §1

In the case of `CC1(C)S[C@@H]2[C@H](NC(=O)[C@H](N)c3ccccc3)C(=O)N2[C@H]1C(=O)O` [Ampicillin], the MIC in experiment [1] is recorded as 1000 γ/cc; in experiment [2], 1000 γ/cc; in experiment [3] it was 500 γ/cc; in experiment [4], 1000 γ/cc; in [5], 1000 γ/cc; in experiment [6] it was 1000 γ/cc. The MIC was 500 γ/cc in experiment [7] and 1000 γ/cc in experiment [8].
In the case of `O=C(Cc1cccs1)N[C@@H]1C(=O)N2C(C(=O)[O-])=C(C[n+]3ccccc3)CS[C@H]12` [Cephaloridine], in [9], the MIC is listed as 1000 γ/cc.
With `CC(=O)OCC1=C(C(=O)O)N2C(=O)[C@@H](NC(=O)Cc3cccs3)[C@H]2SC1` [Cephalothin], the MIC in experiment [7] and in experiment [8] was 1000 γ/cc in each case.
